{"source": "patent US7988944B2", "about": "“Peroxide decomposition catalyst” (Sumitomo Chemical Company, Limited, priority 2005, dated 2011)", "key": {"[1]": {"assay": "Solubility test of catalyst in DMF", "format": "physicochemical", "details": "for Weight of peroxide decomposition catalyst residue which remained undissolved in DMF: about 20 mg catalyst, DMF 5.00 ml in total, residue on filter paper dried and weighed; for Solubility: catalyst 20.0±0.1 mg in 5.0 ml DMF, equation 3; for solubility (in words): from Table 1, DMF", "protocol": "Herein, as an index of solubility in a peroxide decomposition catalyst, solubility of a peroxide decomposition catalyst (20.0±0.1 mg) in a constant amount (5.0 ml) of dimethylformamide (hereinafter abbreviated as DMF) can be used. The solubility as used herein is represented by the following (equation 3).\nFirst, a filter paper (No 5B φ21 m/m) for Kiriyama funnel was dried (100° C., under 200 pa reduced pressure, 6 h), and this was weighed. Then, a peroxide decomposition catalyst (20.0±0.1 mg) and DMF (2.00 ml) were weighed in a 8 ml glass sample tube containing a stirrer, and this was stirred with a magnetic stirrer for 5 minutes. This mixture was transferred with a 2 ml pipette to a glass Kiriyama funnel (φ21 mm) in which the dried filter paper was spread, and this was suction-filtered. The sample tube, the stirrer and the pipette which were used, were washed with DMF several times (total amount 3.00 ml), and the attached catalyst and DMF washing solution were transferred to the Kiriyama funnel, and these were suction-filtered together. Thereafter, the residue on the filter paper, and the filter paper together with the Kiriyama funnel were dried (100° C., under 200 pa reduced pressure, 24 h) in a vacuum oven. After drying, the filter paper, and the residue on the filter paper were weighed, and a dry filter paper weight before filtration was subtracted from this weight to obtain a weight of the peroxide decomposition catalyst residue which remained undissolved in DMF. From this, solubility indicated by the (equation 3) was calculated."}, "[2]": {"assay": "Hydrogen peroxide decomposition test in the presence of poly(sodium 4-styrenesulfonate)", "details": "80° C.; for V(O2), generated oxygen volume: 20 minutes, pH4.0 tartrate buffer/ethylene glycol, 2.28 mmol H2O2, blank corrected, 0° C. and 101325 Pa; for N(O2), mole number of oxygen molecule generated per 20 minutes: oxygen regarded as ideal gas", "protocol": "To a mixture of 8.41 μmol (per one metal atom) of a catalyst and 21.1 mg of poly(sodium 4-styrenesulfonate) (product commercially available from Aldrich, weight average molecular weight: about 70,000) are added 1.00 ml of a tartaric acid/sodium tartrate buffer (pH4.0) and 1.00 ml of ethylene glycol. After this catalyst mixture is stirred at 80° C. for 5 minutes, 0.20 ml of an 11.4 mol/l aqueous hydrogen peroxide solution is added, and the mixture is stirred at 80° C. for 20 minutes. A volume of oxygen generated thereupon is measured with a gas burette, and an amount of decomposed hydrogen peroxide is calculated. Thereafter, this reaction solution is diluted and filtrated, and the filtrate is measured by gel permeation chromatography (GPC), thereby, a weight average molecular weight of poly(sodium 4-styrenesulfonate) after a test is obtained. The GPC analysis condition will be shown below. Column: TSKgel α-M (13 μm, 7.8 mmφ×30 cm) manufactured by Tosoh Corporation, column temperature: 40° C., mobile phase: 50 mmol/l aqueous ammonium acetate solution: CH3CN=7:3 (v/v), flow rate: 0.6 ml/min, detector: RI, injection amount: 50 μl. A weight average molecular weight was obtained as a value in terms of polyethylene oxide. The A value is obtained by the (equation 1), and the B value is obtained by the (equation 2).\nMn-bbpr (4.90 mg, 8.41 μmol (per one metal atom)), and poly(sodium 4-sutyrenesulfonate)(21.1 mg (product commercially available from Aldrich, weight average molecular weight: about 70,000)) were weighed in a two-necked flask (25 ml), and a tartaric acid/sodium tartrate buffer (1.00 ml (prepared from 0.20 mol/l tartaric acid aqueous solution and 0.10 mol/l sodium tartrate aqueous solution, pH4.0)) and ethylene glycol (1.00 ml) as a solvent were added thereto, followed by stirring. This was used as a catalyst mixed solution.\nSeptum was attached to one of inlets of the two-necked flask containing this catalyst mixed solution, and the other inlet was collected to a gas burette. This flask was stirred at 80° C. for 5 minutes, a hydrogen peroxide aqueous solution (11.4 mol/l, 0.20 ml (2.28 mmol)) was added via a syringe, and a hydrogen peroxide decomposition reaction was performed at 80° C. for 20 minutes. Generated oxygen was measured with a gas burette, and decomposed hydrogen peroxide was quantitated. An amount of generated oxygen was corrected based on the following blank test. Thereafter, the reaction solution was diluted with a water/acetonitrile mixed solution (water:acetonitrile=7:3 (v/v)) to a solution amount of 10.0 ml, and this solution was filtered with a syringe filter. This filtrate was GPC-measured, and a weight average molecular weight of poly (sodium 4-sutyrenesulfonate) after a test was obtained.\nPoly(sodium 4-styrenesulfonate) after the hydrogen peroxide decomposition test was GPC-analyzed. The analyzing conditions are shown below. Column: TSKgel α-M (13 μm, 7.8 mmφ×30 cm) manufactured by Tosoh Corporation, column temperature: 40° C., mobile phase: 50 mmol/l ammonium acetate aqueous solution: CH3CN=7:3 (v/v), flow rate: 0.6 ml/min, detector: RI, in injection amount: 50 μl. A weight average molecular weight was obtained as a value in terms of polyethylene oxide.\nAn amount of decomposed hydrogen peroxide was obtained from a volume of oxygen generated in the hydrogen peroxide decomposition test."}}, "data": [{"smiles": "[Co+2].c1ccc2c(c1)-c1nc-2nc2[n-]c(nc3nc(nc4[n-]c(n1)c1ccccc41)-c1ccccc1-3)c1ccccc21", "note": "[Cobalt phthalocyanine, cobalt phthalocyanine]", "values": [{"measurement": "Weight of peroxide decomposition catalyst residue which remained undissolved in DMF", "setting": "[1]", "result": 17.5, "unit": "mg"}, {"measurement": "Solubility", "setting": "[1]", "result": 12.9, "unit": "%"}, {"measurement": "solubility (in words)", "setting": "[1]", "result": "low solubility"}, {"measurement": "V(O2), generated oxygen volume", "setting": "[2]", "result": 4.9, "unit": "mL"}, {"measurement": "N(O2), mole number of oxygen molecule generated per 20 minutes", "setting": "[2]", "result": 0.219, "unit": "mmol"}]}, {"smiles": "[Cu+2].c1ccc2c(c1)-c1nc-2nc2[n-]c(nc3nc(nc4[n-]c(n1)c1ccccc41)-c1ccccc1-3)c1ccccc21", "note": "[Copper phthalocyanine, copper phthalocyanine]", "values": [{"measurement": "Weight of peroxide decomposition catalyst residue which remained undissolved in DMF", "setting": "[1]", "result": 17.3, "unit": "mg"}, {"measurement": "Solubility", "setting": "[1]", "result": 13.1, "unit": "%"}, {"measurement": "solubility (in words)", "setting": "[1]", "result": "low solubility"}, {"measurement": "V(O2), generated oxygen volume", "setting": "[2]", "result": 0.00, "unit": "mL"}, {"measurement": "N(O2), mole number of oxygen molecule generated per 20 minutes", "setting": "[2]", "result": 0.00, "unit": "mmol"}]}, {"smiles": "CC(C)(C)c1ccc2c(c1)C1=Nc3c4cc(C(C)(C)C)ccc4c4[n]3[Fe][n]3c(c5ccc(C(C)(C)C)cc5c3=NC3=NC(=N4)c4cc(C(C)(C)C)ccc43)=NC2=N1", "note": "[Fe-pcy (^tBu)]", "values": [{"measurement": "Weight of peroxide decomposition catalyst residue which remained undissolved in DMF", "setting": "[1]", "result": 0.03, "unit": "mg"}, {"measurement": "Solubility", "setting": "[1]", "result": 99.8, "unit": "%"}, {"measurement": "solubility (in words)", "setting": "[1]", "result": "high solubility"}, {"measurement": "V(O2), generated oxygen volume", "setting": "[2]", "result": 1.40, "unit": "mL"}, {"measurement": "N(O2), mole number of oxygen molecule generated per 20 minutes", "setting": "[2]", "result": 0.0625, "unit": "mmol"}]}, {"smiles": "[Fe+2].c1ccc2c(c1)-c1nc-2nc2[n-]c(nc3nc(nc4[n-]c(n1)c1ccccc41)-c1ccccc1-3)c1ccccc21", "note": "[Iron phthalocyanine, iron phthalocyanine]", "values": [{"measurement": "Weight of peroxide decomposition catalyst residue which remained undissolved in DMF", "setting": "[1]", "result": 17.9, "unit": "mg"}, {"measurement": "Solubility", "setting": "[1]", "result": 11.0, "unit": "%"}, {"measurement": "solubility (in words)", "setting": "[1]", "result": "low solubility"}, {"measurement": "V(O2), generated oxygen volume", "setting": "[2]", "result": 14.33, "unit": "mL"}, {"measurement": "N(O2), mole number of oxygen molecule generated per 20 minutes", "setting": "[2]", "result": 0.64, "unit": "mmol"}]}, {"smiles": "O.O.[Na+].[Na+].[O]=[W](=[O])([O-])[O-]", "note": "[Sodium tungstate dihydrate]", "values": [{"measurement": "Weight of peroxide decomposition catalyst residue which remained undissolved in DMF", "setting": "[1]", "result": 16.5, "unit": "mg"}, {"measurement": "Solubility", "setting": "[1]", "result": 17.8, "unit": "%"}, {"measurement": "solubility (in words)", "setting": "[1]", "result": "low solubility"}]}]}
